Columns and labels:
[1] = Solubility of Prodrug D; assay type: physicochemical
Source text: The solubility and stability of Prodrug D as synthesized in Example 2 were studied.

[2] = system: mice (C57/BL); experiment: Elevated Plus Maze Test (EPMT); assay type: in vivo, mouse; set-up: key to closed arm time, difference between medians: Actual / closed arm time, difference between medians: Hodges-Lehmann: time in closed arms, in seconds (s); total distance, difference between medians: Actual / total distance, difference between medians: Hodges-Lehmann: unit not given here; conditions: 150 mg/kg oral gavage
Protocol: Prodrug D 150 mg/kg was dissolved in tap water per oral gavage. The solution was prepared <30 seconds before administration (100 μL administration volume).
Behavioral tests performed 2.5-3 hours after drug administration. 8 mice (C57/BL) per group were used received vehicle or Prodrug D.
The EPMT was used to assess anxiety-like reactivity as induced suppression of exploratory behavior. The maze was made of white Plexiglass and consisted of two open arms (16×5 cm) opposite each other and two walled arms (16×5×12 cm) opposite each other. […] The mice were each placed on the central platform facing one of the open arms. EPMT behavior was recorded for 5 min under bright white light (100 W). Behavioral endpoints that were analyzed included time spent in the open vs closed arms, frequency of open arm vs closed arm entries, time spent (s) on the central platform. Anxiolytic agents are known to increase open arm visits and time in the open arm. Anxiogenics increase closed arm visits.
The percentage of the time spent in the open arms was calculated employing the formula […] where OA represents the time (s) spent in open arms and CA is the time (s) spent in the closed arms. Behavioral experiments were recorded and analyzed using an automated tracking system (Video track, View Point Life Science, Montreal, Canada) equipped with infrared lighting-sensitive CCD cameras (Bambico F R et al., 2010).

[3] = system: neuropathic (SNI) rats; experiment: Sleep restoration in neuropathic rats, 24 h EEG/EMG recordings (REM, NREM, wakefulness, sleep fragmentation index); assay type: in vivo, rat; conditions: for NREM 24 h, mean difference (Bonferroni's multiple comparison test) / REM 24 h, mean difference (Bonferroni's multiple comparison test) / Wake 24 h, mean difference (Bonferroni's multiple comparison test) / SFI (sleep fragmentation index), mean difference (Bonferroni's multiple comparison test): Prodrug D 150 mg/kg, neuropathic (SNI) rats; for NREM 24 h, mean difference (Bonferroni's multiple comparison test) / REM 24 h, mean difference (Bonferroni's multiple comparison test) / Wake 24 h, mean difference (Bonferroni's multiple comparison test): 24 h EEG/EMG; for SFI (sleep fragmentation index), mean difference (Bonferroni's multiple comparison test): awakenings in 24 h divided by total sleep time in hours
Protocol: Wistar rats weighted 120 g at the beginning of the experiment were housed under standard conditions, at a constant temperature of 22° C., with food and water provided ad libitum and under a 12 h light/dark cycle (lights on at 7:00 AM; lights off at 7:00 PM). All experimental procedures and surgeries were approved by the Animal Ethics Committee of local institutional committee for animal use and care (McGill University, Canada), following the Canadian Institute of Health Research for animal care and scientific use.
Only animals presenting allodynia (mean 2.5 gr) 14 days after SNI surgery, were then implanted EEG/EMG electrode, for 24 hours electrical recording and non-allodynic rat were excluded.
Sham and neuropathic rats were deeply anesthetized with isoflurane (5% for induction, 2-3% for maintenance) and placed in a stereotaxic frame. For EEG monitoring, three stainless-steel epidural electrodes were positioned through 1.5 mm burr holes at-2 mm anteroposterior (AP) and −3 mm lateral (L), −4.5 mm AP and +3 mm L, −7 mm AP and […] according to bregma (Paxinos and Watson 2006). For the EMG signal, three flexible stainless-steel wires were implanted into the neck muscle. Then, wires and connectors were fixed to the skull using dental acrylic (Coltene/Whaledent Inc. USA). Rats were given 5 days to recovery (Ochoa-Sanchez, et al., 2011).
24-h after electrode implantation surgery, rats were placed for habituation in the recording room from 12:00 PM to 9:00 PM on a daily basis. During this time, the rats were placed in the recording chambers and connected to a flexible 6-flat cable (3M Scotchflex®), in a freely moving manner. No recordings were performed, but tolerance to the cable, and sleep behavior were observed. The day 5 of habituation, recordings were performed for 24 h, starting at 6:00 PM.
Prodrug D (150 mg/kg) was dissolved in 40% PEG 400 and 60% water (about 2.5 mL average for rats by gavage) and was administered at 6 am and 6 pm.
The amplification of EEG/EMG signals were at the total gain of 10.000. EEG/EMG signals were digitalized by a CED 1401 interface system, processed on-line, and analyzed off-line by Spike 2 software, in parallel with analog-to-digital samplings of amplified (Grass, P55) polygraphic signals (EEG; sampling rate, 100 or 200 Hz). Consecutive 10-s epochs were subjected to a Fast Fourier Transform (FFT) and EEG power spectra density was computed in the frequency range of 0-64 Hz (Ochoa-Sanchez, R et al., 2011).
Analysis was made offline using the spike 2 software (Cambridge). Three classical sleep stages are identified using EEG and EMG recordings. Wakefulness was determined by a sustained activity of EMG and low amplitude and high frequency of EEG. NREM (non-rapid eyes movement) sleep was characterized by high amplitude […] (1-4 Hz) and low muscle activity. REM (rapid eyes movement) sleep was marked with muscle atonia as observed in EMG and low amplitude […] in EEG (6-11). Only period longer than 10 seconds was marked for further analysis of awake, REM and NREM sleep, in order to eliminate the transitional period such as drowsiness (Ochoa-Sanchez, R et al., 2011).
Given the changes induced by the neuropathy on sleep parameters, we then calculate the sleep fragmentation index (SFI). SFI was calculated as the total number of awakenings in 24 h divided by the total sleep time in hours.
Data analysis was done using GraphPad Prism statistical software version 5.04 […]. One-way ANOVA was performed for 24 h time of REM, NREM and wakefulness as well as sleep fragmentation index. Post-hoc analyses were performed using the Bonferroni t-test comparisons. All data are expressed as mean±SEM. P<0.05 was considered significant.

[4] = 2.5-3 hours after administration, 5 min EPMT
[5] = SNI rats, 150 mg/kg by gavage at 6 am and 6 pm

In the case of `CC(=O)N(CCN(c1ccc(F)cc1)c1cccc(Br)c1)C(=O)OCOC(=O)CN.Cl` [Prodrug D, ((acetyl(2-((3-bromophenyl)(4-fluorophenyl)amino)ethyl)carbamoyl)oxy)methyl 2-aminoacetate hydrochloride], the solubility ([1]; aqueous with cosolvent or surfactant or cyclodextrin, in PEG400:water 40%:60% mixture) is reported as over 125 mg/mL, the solubility ([1]; in water) is reported as over 150 mg/mL and the “overall effect in the EPMT” value [2] is reported as “antianxiety effects”. The “closed arm time, median” value [2, 4] was 222.8, n = 8, the “entries to open, median” value [2, 4] was 11.00, n = 8 and the “open arm time, median” value [2, 4] was 56.30, n = 8. The “total distance, median” value [2, 4] was 1521, n = 8, the “closed arm time, difference between medians: Actual” value ([2]; VEH minus Prodrug D (column A)) was 25.75 and the “entries to open, difference between medians: Actual” value ([2]; VEH minus Prodrug D (column A)) was −2. For the same compound, the “open arm time, difference between medians: Actual” value ([2]; VEH minus Prodrug D (column A)) was −30.85, the “total distance, difference between medians: Actual” value ([2]; VEH minus Prodrug D (column A)) was −2.35 and the “closed arm time, difference between medians: Hodges-Lehmann” value ([2]; VEH vs. Prodrug D) was 29.45. For the same compound, the “entries to open, difference between medians: Hodges-Lehmann” value ([2]; VEH vs. Prodrug D) was −2.5, the “open arm time, difference between medians: Hodges-Lehmann” value ([2]; VEH vs. Prodrug D) was −25.9 and the “total distance, difference between medians: Hodges-Lehmann” value ([2]; VEH vs. Prodrug D) was −116.6. For the same compound, the “NREM 24 h, mean difference (Bonferroni's multiple comparison test)” value ([3]; Control vs SNI + Prodrug D) was −236.5, the “REM 24 h, mean difference (Bonferroni's multiple comparison test)” value ([3]; Control vs SNI + Prodrug D) was −107 and the “Wake 24 h, mean difference (Bonferroni's multiple comparison test)” value ([3]; Control vs SNI + Prodrug D) was 343.4. The “SFI (sleep fragmentation index), mean difference (Bonferroni's multiple comparison test)” value ([3]; Control vs SNI + Prodrug D) was 0.2758, the “REM time, NREM time and time in wakefulness during 24 h” value [3, 5] was “restore all the three parameters” and the “sleep fragmentation index (SFI)” value [3, 5] was “reverse the fragmentation”. The “NREM 24 h, mean difference (Bonferroni's multiple comparison test)” value ([3]; Sham vs SNI + Prodrug D) was −62.39, the “REM 24 h, mean difference (Bonferroni's multiple comparison test)” value ([3]; Sham vs SNI + Prodrug D) was −44.39 and the “Wake 24 h, mean difference (Bonferroni's multiple comparison test)” value ([3]; Sham vs SNI + Prodrug D) was 106.8. The “SFI (sleep fragmentation index), mean difference (Bonferroni's multiple comparison test)” value ([3]; Sham vs SNI + Prodrug D) was 0.01886.

Source: US20250339396A1 (COSMAS THERAPEUTICS DEVELOPMENT INC., priority 2021, published 2025)
